# Values joined by “and” are separate entries in the source; they are usually repeats but may differ in a detail not shown here. Equal entries are not always repeated.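 Growth conditions: 96-well plates. Treatment: test compound, 48 hours, 5 concentrations. Analysis: linear interpolation between bracketing concentrations; unreached endpoints set to highest concentration. At the GI50, growth is halved. TGI denotes the concentration required for complete inhibition of growth.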
# Assays:
# Assay in all cases: inhibition of tumour cell growth, NCI panel, 48 h
# [1] = system: 786-0 renal
# [2] = system: COLO 205 colon
# [3] = system: HCC-2998 colon
# [4] = system: HOP-92 NSCLC
# [5] = system: MDA-N
# [6] = system: NCI-H23 lung
# [7] = system: OVCAR-3 ovarian
# [8] = system: OVCAR-8 ovarian
# [9] = system: SNB-19 CNS
# [10] = system: SW-620 colon
# [11] = system: RPMI-8226 leukemia
Compound,TGI [1],TGI [2],TGI [3],TGI [4],TGI [5],TGI [6],TGI [7],TGI [8],TGI [9],TGI [10],TGI [11],GI50 [3],GI50 [4],GI50 [6],GI50 [11],GI50 [10],GI50 [2],GI50 [7],GI50 [8],GI50 [9]
COc1ccc(N[C@H](CS(=O)c2ccc(C)cc2)C(F)(F)F)cc1 (stereo not given in full),> 100 µM,> 100 µM,> 100 µM,> 100 µM,> 100 µM,> 100 µM,> 100 µM,> 100 µM,> 100 µM,> 100 µM,,,,,,,,,,
O=C(O)CN1CCN2CCCCCCCCN(CC1)CCN(CC(=O)O)CC2,> 100 µM,> 100 µM,,> 100 µM,> 100 µM,,> 100 µM,> 100 µM,> 100 µM,> 100 µM,> 100 µM,,,,,,,,,
[N-]=[N+]=C1C(=O)C2CC3CC1CC2C3 (stereo not given),> 100 µM,> 100 µM,> 100 µM,> 100 µM,,> 100 µM,> 100 µM,> 100 µM,> 100 µM,> 100 µM,> 100 µM,,,,,,,,,
C/C=C(\C)C(=O)OC1C2C(C)=CC(=O)C(O)C2(C)C2C3(O)OCC24C1OC(=O)C(OC(C)=O)C4C(C)C3O (stereo not given),,0.229 µM,0.0928 µM,0.0508 µM,,0.266 µM,0.0496 µM,0.105 µM,,0.525 µM,0.0377 µM,,,,,,,,,
Cc1ccc(F)c2[nH]c(-c3ccccc3)cc(=O)c12,> 43.4 µM,24.9 µM,> 100 µM,,> 100 µM,> 65.8 µM,> 100 µM,> 100 µM,> 100 µM,> 100 µM,> 100 µM,,,,,,,,,
CCOC(=O)c1ccc(NCc2ccc3nc(OC)c(OC)nc3c2)cc1,> 100 µM,> 100 µM,> 100 µM,> 100 µM,> 100 µM,> 100 µM,> 100 µM,> 100 µM,> 100 µM,> 100 µM,,,,,,,,,,
Cc1cn(CC2(CO)CCC2)c(=O)[nH]c1=O,> 100 µM,> 100 µM,> 100 µM,,> 100 µM,> 100 µM,> 100 µM,> 100 µM,,> 100 µM,> 100 µM,,,,,,,,,
CCCC(=O)Nc1cc(/C=C/C(=O)N2CC(CCl)c3ccc([N+](=O)[O-])cc32)n(C)c1 (stereo not given),> 100 µM,> 100 µM,> 100 µM,,> 100 µM,> 100 µM,> 100 µM,> 100 µM,> 100 µM,> 100 µM,> 100 µM,,,,,,,,,
COC(Cc1cc(C(O)(c2ccc(C(C)(C)C)cc2)c2cc(CC(OC)(c3cc(C(OC)(c4ccc(C(C)(C)C)cc4)c4ccc(C(C)(C)C)cc4)c(C)cc3C)c3cc(C(OC)(c4ccc(C(C)(C)C)cc4)c4ccc(C(C)(C)C)cc4)c(C)cc3C)c(C)cc2C)c(C)cc1C)(c1cc(C(OC)(c2ccc(C(C)(C)C)cc2)c2ccc(C(C)(C)C)cc2)c(C)cc1C)c1cc(C(OC)(c2ccc(C(C)(C)C)cc2)c2ccc(C(C)(C)C)cc2)c(C)cc1C,,> 75 µM,> 75 µM,> 75 µM,> 75 µM,> 75 µM,> 75 µM,> 75 µM,> 75 µM,> 75 µM,,,,,,,,,,
Cc1cc(C)n(CN(CCCCO)Cn2nc(C)cc2C)n1,36.7 µM,31.7 µM,,81 µM,35.1 µM,50.6 µM,58 µM,41.7 µM,> 100 µM,63 µM,20.3 µM,,,,,,,,,
Cc1ccc2c(ccc3ncc(CNc4ccc(NS(C)(=O)=O)cc4)c32)[nH]1,39.4 µM,94.4 µM,,90.3 µM,32.1 µM,58.7 µM,43.8 µM,81.1 µM,> 100 µM,> 100 µM,41.3 µM,,,,,,,,,
CCOP(=O)(OCC)/C(=C\n1ccc(=O)[nH]c1=S)C(=O)OC,> 100 µM,> 100 µM,> 100 µM,,> 100 µM,> 100 µM,,> 100 µM,,> 100 µM,> 100 µM,,,,,,,,,
CCSC1=N/C(=C\c2ccco2)C(Nc2ccc(C)cc2)=N1,> 100 µM,> 100 µM,,> 100 µM,> 100 µM,> 100 µM,> 100 µM,> 100 µM,> 100 µM,> 100 µM,> 100 µM,,,,,,,,,
COc1ccc2c(c1)C(=O)c1c-2n(CCCN=[N+]=[N-])c(=O)c2cc([N+](=O)[O-])ccc12,0.708 µM,> 100 µM,,,,18 µM,,> 100 µM,,0.783 µM,0.264 µM and 1.35 µM,13 nM,64.6 nM,244 nM,12.8 nM and 10.1 nM,< 0.001 µM,,,,
CSc1nc2nccnc2c(=O)[nH]1,> 100 µM,> 100 µM,> 100 µM,> 100 µM,,> 100 µM,,> 100 µM,> 100 µM,> 100 µM,> 100 µM,,,,,,,,,
CC1=C(C(=O)O)N2C(=O)[C@@H](NC(=O)C(c3ccccc3)N3CSC(=S)N(C(C)C)C3)C2SC1 (stereo not given in full),> 100 µM,> 100 µM,,> 100 µM,,> 100 µM,> 100 µM,> 100 µM,> 100 µM,,> 100 µM,,,,,,,,,
COc1ccccc1N1C(=O)CSC1c1cccc(Oc2ccccc2)c1 (stereo not given),32.5 µM,34.9 µM,,26.5 µM,,52.9 µM,45.1 µM,37.5 µM,56.1 µM,56.6 µM,,,,,,,,,,
CC(C)(Oc1ccc2c(=O)cc(-c3ccc(Cl)cc3)oc2c1)C(=O)Nc1c(Cl)cccc1Cl,> 100 µM,,,> 100 µM,,> 100 µM,> 100 µM,> 100 µM,> 100 µM,> 100 µM,> 100 µM,,,,,,,,,
CC1=C(O)C(=O)C2C(=O)C1C(C)C2c1ccccc1 (stereo not given),> 100 µM,> 100 µM,> 100 µM,> 100 µM,,> 100 µM,> 100 µM,> 100 µM,> 100 µM,> 100 µM,> 100 µM,,,,,,,,,
COc1cc(-c2n/c(=C\c3c(O)[nH]c4ccccc34)cc3c2=Nc2ccccc2-3)ccc1F,,> 100 µM,> 100 µM,19.9 µM,,17.6 µM,14.5 µM,31.5 µM,24.3 µM,86.7 µM,> 100 µM,4320 nM,3290 nM,2830 nM,17500 nM,4.15 µM,10.9 µM,4.08 µM,8.4 µM,4.94 µM
